Values joined by “and” are separate entries in the source; they are usually repeats but may differ in a detail not shown here. Identical values can stand only once. “Also recorded” adds a separate entry of the source.
Columns and labels:
[1] = system: C57BL/6J mice subjected to ICH; assay: Brain water content (edema) after ICH; assay type: in vivo; conditions: for brain water content versus vehicle: 1 mg/kg i.p. first at 6 h and 12 h after ICH
Method: (§1) Animal Preparation and Intracerebral Infusion. Adult male C57BL/6J mice weighing 23-30 g were used. Mice were randomized to receive intraperitoneal injection of either C3aRA (1 mg/kg) (SB290157, Calbiochem, Darmstadt, Germany) diluted in PBS and DMSO (1.16% v/v), or an equal volume of vehicle (PBS and DMSO, 1.16% DMSO v/v) either 45 minutes prior to ICH induction or 6 and 12 hours after induction of ICH, followed in both cohorts by twice daily doses for 72 hours. […] Sham animals were given PBS and DMSO (1.16% v/v) in the same manner.
(§2) Mice were anesthetized with a single intraperitoneal dose of ketamine (90 mg/kg) and xylazine (5 mg/kg). Next, the mice were placed in a stereotactic frame (ASI Instruments, Inc., Warren, Mich., USA) and subjected to ICH using autologous blood infusion as previously described (Rynkowski M A et al, 2008, Nat Protoc 3: 122-128), Briefly, a 1-mm burr hole was drilled 2.3 mm lateral to the midline and 0.2 mm anterior to the bregma. Thirty μL of autologous whole blood were drawn from the tail artery into a capillary tube. A 30-gauge needle was then advanced stereotactically through the burr hole into the right striatum (coordinates: 0.2 mm anterior, 2.3 mm lateral to the bregma, 3.5 mm ventral). Using a microinfusion pump (KDS220, KD Scientific Inc., Holliston, Mass., USA), 5 μL was delivered at a rate of 1.5 μL per minute. After a 7-minute period, an additional 25 μL was delivered at a constant rate of 1.5 μL per minute. After a period of 10 minutes, the needle was slowly removed, the burr hole was occluded with bone wax and the skin incision was closed with Nexaband® (Abbott Laboratories, North Chicago, Ill.). Sham animals received only needle insertion. Rectal temperature was maintained at 37.0° C. using a feedback-controlled heating lamp, and the animals recovered in a temperature-controlled incubator for 45 minutes post-procedure.
Determination of brain water content. Mice were reanesthetized with Ketamine (80-100 mg/kg i.p.), Xylazine (5-10 mg/kg i.p.) and sacrificed 3 days post-hemorrhage to determine brain water content (sham vehicle n=8 Pre-C3aRA n=8, Post-C3aRA n=11). Brains were removed immediately en bloc and five 2-mm coronal slices were obtained beginning 2-mm from the frontal pole. The brain slices were divided into two hemispheres along the midline. The cortex of each hemisphere was then carefully dissected from the basal ganglia. The cerebellum was retained as a control. Each of the five sections was then weighed on an electronic analytical balance (Model AG 104, Mettler-Toledo, Inc., Columbus, Ohio, USA) to determine the wet weight. The sections were then placed onto pre-weighed cover slips and dried overnight in a vacuum oven for 24 hours to obtain the dry weight. Brain water content (%) was calculated as: ((wet weight-dry weight)/wet weight)×100.
Animal Preparation and Intracerebral Infusion. Adult male C57BL/6J mice weighing 23-30 g were randomized to receive intraperitoneal injection of either C3aRA (1 mg/kg) (SB290157, Calbiochem, Darmstadt, Germany), C5aRA (1 mg/kg), combined C3aRA and C5aRA or an equal volume of DMSO. Each drug was diluted in PBS (1.16% v/v) and given 6 and 12 hours after ICH induction, followed by twice daily doses for 72 hours. The sham group of animals was given PBS and DMSO (1.16% v/v) in the same manner. Mice were anesthetized with a single intraperitoneal dose of ketamine (90 mg/kg) and xylazine (5 mg/kg). […]

[2] = system: C57BL/6J mice subjected to ICH; assay: Flow cytometric analysis of granulocyte infiltration and microglial activation after ICH; assay type: in vivo; conditions: then twice daily, mean±SEM
Method: as §1
as §2, with “Rectal temperature was maintained at 37.0° C. using a feedback-controlled heating lamp, and the animals recovered in a temperature-controlled incubator for 45 minutes post-procedure.” left out
Preparation of brains. Both cerebral hemispheres were analyzed for inflammatory cells using flow cytometry. […]
Flow cytometric analysis. […] Flow cytometric analysis was carried out using a FACSCalibur (BD Biosciences, Franklin Lakes, N.J., USA), and the data were analyzed using FlowJo software (Tree Star, Ashland, Oreg., USA). […]

[3] = then twice daily, 72 hours after ICH
[4] = 1 mg/kg i.p. 45 minutes prior to ICH, then twice daily, 72 hours after ICH, mean±SEM
[5] = 1 mg/kg i.p. 45 minutes prior to ICH, 72 hours after ICH

| Compound | brain water content versus vehicle [1, 3] | granulocyte infiltration, hemorrhagic/non-hemorrhagic ratio ([2]; 1 mg/kg i.p. first at 6 h and 12 h after ICH, 3 days after ICH) | brain water content, ipsilateral basal ganglia [1, 4] [%] | brain water content, ipsilateral cortex [1, 4] | water content in the contralateral cortex, the basal ganglia and cerebellum ([1]; pre-ICH dosing 1 mg/kg i.p., 72 hours, versus vehicle-treated and sham) | activated microglia, hemorrhagic/non-hemorrhagic hemisphere ratio [2, 5] | granulocytes, hemorrhagic/non-hemorrhagic hemisphere ratio [2, 5] |
| --- | --- | --- | --- | --- | --- | --- | --- |
| Acetyl-Phe-[Orn-Pro-D-cyclohexylalanine-Trp-Arg] [C5aRA] | mildly decreased brain water content | 1.7793±0.36 | – | – | – | – | – |
| NC(N)=NCCC[C@H](NC(=O)COCC(c1ccccc1)c1ccccc1)C(=O)O [C3aRA] | mildly decreased brain water content; also recorded: Trend towards decreased edema | – | 77.43±0.43 | 77.56±0.26% and 77.57±0.26% | not different | 3.67±0.45 | 3.21±0.52 |
